Measured values: patent US7846473B2, “Irinotecan preparation” (Terumo Kabushiki Kaisha, priority 2004, dated 2010)

Experiments:
Assay type in all cases: in vivo
Retentivity in blood = settings: female, plasma, iv; BALB/c mouse, 10 mg/kg i.v. tail, elapsed time 1 hr; read-out: Concentration in plasma of irinotecan hydrochloride
[1] = system: Human lung cancer cells (QG56); experiment: Antitumor effect, human lung cancer QG56 transplanted in mouse; settings: QG56 in BALB/c nude mouse; for Inhibition rate (%) / Tumor weight (g, mean ± S.D.): 21 days after first injection
Procedure: Human lung cancer cells (QG56) with 2 to 3 mm square were transplanted subcutaneously in an inguinal region of a mouse (BALB/c nude, male, 6 weeks old, CLEA Japan, Inc.) with a needle for transplantation. […] Mice without injection of either agent were employed as a control group.
The estimated volume of each tumor and a body weight of the mouse were calculated 4, 8, 12, 16, and 21 days after the first injection. The tumors were also removed 21 days after the first injection and a weight of the tumors was measured, to thereby calculate each tumor proliferation inhibition rate, I.R. (%) by the formula as shown in Test Example 6. The results are shown in Table 16, FIG. 28, and FIG. 29.

[2] = system: human prostatic cancer cells (PC-3); experiment: Antitumor effect, human prostatic cancer PC-3 implanted in mouse; settings: PC-3 in BALB/c nude mouse; for Inhibition rate (%) / Tumor weight (g, mean ± S.D.): Day 22
Excerpt: (§1) 2.5×10^6 cells/mouse of human prostatic cancer cells (PC-3) were implanted subcutaneously in left inguinal region of the mouse (BALB/c nude, male, 6 weeks old, Charles River Japan, Inc.). After implanting tumors, a presumptive tumor volume calculated by ½·ab^2 (a represents a longitudinal diameter of a tumor and b represents a short axis diameter thereof). […] There were mice without injection of either agent as a control group.
A presumptive tumor volume and a body weight of a mouse were measured at Days 1, 5, 9, 12, 16, and 22.
After extracting tumors and measuring a weight thereof at Day 22, further, an inhibition rate of tumor growth I.R. (%) was calculated by the following formula. I.R. %=(1−average tumor weight in a treatment group/average tumor weight in a control group)×100

[3] = system: human colon cancer cells (HCT116); experiment: Antitumor effect, human colon cancer HCT116 implanted in mouse; settings: HCT116 in BALB/c nude mouse; for Inhibition rate (%) / Tumor weight (g, mean ± S.D.): 21 days after injection
Procedure: as §1, with “2×10^6” for “2.5×10^6”, “colon” for “prostatic”, “(HCT116)” for “(PC-3)”, “♂,” for “male,”, “volume was” for “volume”, “thereof) achieved to about 90 mm^3 in a day (Day 0).” for “thereof).”
A presumptive tumor volume and a body weight of a mouse were measured after 5, 8, 12, 16, and 21 days from the injection. Extracting tumors 21 days after the injection and measuring a weight thereof, further, an inhibition rate of tumor growth I.R. (%) was calculated by the formula as shown in Test Example 6.

[4] = system: Mouse fibrosarcoma (Meth A); experiment: Antitumor effect due to administration of a drug once or twice, Meth A; settings: Meth A in BALB/c mouse; for Inhibition rate (%) / Tumor weight (g, mean ± S.D.): 21 days from transplantation
Procedure: Mouse fibrosarcoma (Meth A), 2.5×10^5 cells/mouse were transplanted subcutaneously in an inguinal region of a mouse (BALB/c, female, 7 weeks old, CLEA Japan, Inc.). […] Mice without injection of any agent were employed as a control group.
The tumors were also removed after 21 days from the transplantation and weight of the tumors was measured, to thereby calculate tumor proliferation inhibition rate, I.R. (%) by the formula as shown in Test Example 6.

[5] = Pharmacokinetics due to single administration in Meth A tumor-bearing mouse (plasma and tumor); settings: Meth A-bearing BALB/c mouse, 10 mg/kg i.v.
[6] = Pharmacokinetics in cynomolgus monkey
Procedure: Providing 50 μL of blood plasma with 550 μL of an internal standard solution B (a methanol solution of internal standard substances) and employing centrifugal force, the supernatant was diluted with methanol 100-fold as a sample for the total CPT-11 concentration measurement. Meanwhile, Providing 50 μL of each blood plasma with 200 μL of an internal standard solution A (0.147 mol/L H3PO4 solution of internal standard substances), 200 μL thereof was subjected to a centrifugal separation (100,000×g, for 30 min, 10° C.). 100 μL in upper layer were separated and were employed solid-phase extraction, to obtain the eluent as samples for free CPT-11 (i.e., CPT-11 released from liposome, hereinafter referred as “liposome-released CPT-11”) concentration measurement, SN-38 concentration measurement, and SN-38G (SN-38 10-O-gluclonide) concentration measurement. The samples obtained were measured each concentration thereof with LC/MS/MS. FIGS. 8 to 11 show the results.

[7] = system: Mouse fibrosarcoma (Meth A); experiment: Antitumor effect due to administration of a drug three times, Meth A; settings: Meth A in BALB/c mouse; for Inhibition rate (%) / Tumor weight (g, mean ± S.D.): 21 days from transplantation
Procedure: Mouse fibrosarcoma (Meth A), 2.5×10^5 cells/mouse were transplanted subcutaneously in an inguinal region of a mouse (BALB/c, female, 7 weeks old, CLEA Japan, Inc.). […] Mice without injection of either agent were employed as a control group.
The tumors were also removed after 21 days from the transplantation and weight of the tumors was measured, to thereby calculate each tumor proliferation inhibition rate, I.R. (%) by the formula as shown in Test Example 6.

[8] = system: Human colon cancer cells (HT-29); experiment: Antitumor effect, human colon cancer HT-29 transplanted in mouse; settings: HT-29 in BALB/c nude mouse; for Inhibition rate (%) / Tumor weight (g, mean ± S.D.): 21 days after injection
Procedure: Human colon cancer cells (HT-29) with 2 to 3 mm square were transplanted subcutaneously in an inguinal region of a mouse (BALB/c nude, male, 6 weeks old, CLEA Japan, Inc.) with a needle for transplantation. […] Mice without injection of either agent were employed as a control group.
The estimated volume of tumors and a body weight of the mouse were calculated at 4, 8, 12, 17, 21 days after a first injection. The tumors were also removed 21 days after the injection and the weight of the tumors were measured, to thereby calculate a tumor proliferation inhibition rate, I.R. (%) by the formula as shown in Test Example 6.

[9] = system: neutrophils and lymphocytes; experiment: Hemotoxicity in rat; settings: i.v. tail vein
Procedure: Collecting blood of 0.4 mL from a cervical vein of the rat before and after injection; and after 2, 4, 6, 13, 20, and 27 days (for 4 weeks); the number of neutrophils and lymphocytes was measured with automated hematology analyzer (Sysmex XT-2000i, Sysmex). FIGS. 12 and 13 show the results.

[10] = 12.5 mg/kg i.v., treatment on day 7
[11] = 12.5 mg/kg i.v., treatment on days 7, 11
[12] = 25 mg/kg i.v., treatment on day 7
[13] = 25 mg/kg i.v., treatment on day 11
[14] = 25 mg/kg i.v., treatment on days 7, 11
[15] = 50 mg/kg i.v., treatment on day 7
[16] = 50 mg/kg i.v., treatment on day 11
[17] = 50 mg/kg i.v., treatment on days 7, 11
[18] = 50 mg/kg i.v., treatment on days 7, 9, 11
[19] = 50 mg/kg i.v., treatment on days 7, 11, 15
[20] = 100 mg/kg i.v., treatment on days 7, 9, 11
[21] = 100 mg/kg i.v., treatment on days 7, 11, 15

For `CCc1c2c(nc3ccc(OC(=O)N4CCC(N5CCCCC5)CC4)cc13)-c1cc3c(c(=O)n1C2)COC(=O)[C@]3(O)CC` [(+)-(4S)-4,11-diethyl-4-hydroxy-9-[(4-piperidino-piperidino)carbonyloxy]-1H-pyrano[3′,4′:6,7]indolizino[1,2-b]quinolin-3,14(4H,12H)-dione], the concentration at 1 h (Retentivity in blood) was 0.39 µg/mL, the “tumor proliferation compared to the control group” value [1] was “significant tumor proliferation inhibitory effect” and the “Inhibition rate (%)” value ([1]; 25 mg/kg i.v. days 1, 5, 9) was 35.5%. The “Tumor weight (g, mean ± S.D.)” value ([1]; 25 mg/kg i.v. days 1, 5, 9) was 1.88 ± 0.43 g, the “Inhibition rate (%)” value ([1]; 50 mg/kg i.v. days 1, 5, 9) was 48.7% and the “Tumor weight (g, mean ± S.D.)” value ([1]; 50 mg/kg i.v. days 1, 5, 9) was 1.49 ± 0.51 g. The “Inhibition rate (%)” value ([1]; 100 mg/kg i.v. days 1, 5, 9) was 67.2%, the “Tumor weight (g, mean ± S.D.)” value ([1]; 100 mg/kg i.v. days 1, 5, 9) was 0.95 ± 0.18 g and the “effect on body weight of the mouse” value ([1]; 25-100 mg/kg i.v. days 1, 5, 9) was “didn't affect the body weight of the mouse”. For the same compound, the “tumor growth compared to the control group” value [2] was “significant suppressive effect of tumor growth”, the “Inhibition rate (%)” value ([2]; 25 mg/kg i.v. days 1, 5, 9) was 49.0% and the “Tumor weight (g, mean ± S.D.)” value ([2]; 25 mg/kg i.v. days 1, 5, 9) was 0.64 ± 0.25 g. For the same compound, the “Inhibition rate (%)” value ([2]; 50 mg/kg i.v. days 1, 5, 9) was 48.0%, the “Tumor weight (g, mean ± S.D.)” value ([2]; 50 mg/kg i.v. days 1, 5, 9) was 0.66 ± 0.13 g and the “Inhibition rate (%)” value ([2]; 100 mg/kg i.v. days 1, 5, 9) was 62.3%. For the same compound, the “Tumor weight (g, mean ± S.D.)” value ([2]; 100 mg/kg i.v. days 1, 5, 9) was 0.48 ± 0.20 g, the “influence on body weight of the mouse” value ([2]; 25-100 mg/kg i.v. days 1, 5, 9) was “did not influence the body weight of the mouse” and the “tumor growth compared to the control group” value [3] was “significant suppressive effect of tumor growth”. The “Inhibition rate (%)” value ([3]; 18.75 mg/kg i.v. Days 1, 5, 9) was 39.0%, the “Tumor weight (g, mean ± S.D.)” value ([3]; 18.75 mg/kg i.v. Days 1, 5, 9) was 0.76 ± 0.06 g and the “Inhibition rate (%)” value ([3]; 37.5 mg/kg i.v. Days 1, 5, 9) was 43.4%. For the same compound, the “Tumor weight (g, mean ± S.D.)” value ([3]; 37.5 mg/kg i.v. Days 1, 5, 9) was 0.71 ± 0.08 g, the “Inhibition rate (%)” value ([3]; 75 mg/kg i.v. Days 1, 5, 9) was 57.4% and the “Tumor weight (g, mean ± S.D.)” value ([3]; 75 mg/kg i.v. Days 1, 5, 9) was 0.53 ± 0.14 g. For the same compound, the “influence on body weight of the mouse” value ([3]; 18.75-75 mg/kg i.v. Days 1, 5, 9) was “did not influence the body weight of the mouse”, the “Inhibition rate (%)” value [4, 10] was 20.2% and the “Tumor weight (g, mean ± S.D.)” value [4, 10] was 2.82 ± 0.51 g. The “Inhibition rate (%)” value [4, 11] was 29.4%, the “Tumor weight (g, mean ± S.D.)” value [4, 11] was 2.49 ± 0.29 g and the “Inhibition rate (%)” value [4, 12] was 26.0%. For the same compound, the “Tumor weight (g, mean ± S.D.)” value [4, 12] was 2.61 ± 0.40 g, the “Inhibition rate (%)” value [4, 13] was 32.1% and the “Tumor weight (g, mean ± S.D.)” value [4, 13] was 2.40 ± 0.74 g. For the same compound, the “Inhibition rate (%)” value [4, 14] was 34.1%, the “Tumor weight (g, mean ± S.D.)” value [4, 14] was 2.33 ± 0.62 g and the “Inhibition rate (%)” value [4, 15] was 33.7%. The “Tumor weight (g, mean ± S.D.)” value [4, 15] was 2.34 ± 0.17 g, the “Inhibition rate (%)” value [4, 16] was 44.0% and the “Tumor weight (g, mean ± S.D.)” value [4, 16] was 1.98 ± 0.45 g. For the same compound, the “Inhibition rate (%)” value [4, 17] was 41.2%, the “Tumor weight (g, mean ± S.D.)” value [4, 17] was 2.08 ± 0.43 g and the “effect on body weight of the mouse” value ([4]; 12.5-50 mg/kg i.v. once or twice) was “didn't affect the body weight of the mouse”. The “tumor proliferation compared to the control group” value ([4]; one or two administrations) was “significant tumor proliferation inhibitory effect compared to the control group unless a part of the physiological saline solutions of irinotecan hydrochloride”, the “time of maximum concentration of irinotecan hydrochloride in the tumor tissue” value [5] was 0.5 h and the “time of highest SN-38 concentration in blood plasma” value ([6]; 10 mg/kg i.v.) was “immediately after injection”. For the same compound, the “time of highest free (liposome-released) CPT-11 concentration in blood plasma” value ([6]; 10 mg/kg i.v.) was “immediately after injection”, the concentration at 1 h ([6]; male, plasma, iv, 10 mg/kg i.v. over 4 min, until 1 hour, lower limit of quantification, read-out: total CPT-11 concentration in blood plasma) was less than 1 µg/mL and the “Inhibition rate (%)” value [7, 18] was 26.9%. For the same compound, the “Tumor weight (g, mean ± S.D.)” value [7, 18] was 1.47 ± 0.18 g, the “Inhibition rate (%)” value [7, 19] was 1.0% and the “Tumor weight (g, mean ± S.D.)” value [7, 19] was 1.99 ± 0.47 g. The “Inhibition rate (%)” value [7, 20] was 86.0%, the “Tumor weight (g, mean ± S.D.)” value [7, 20] was 0.28 ± 0.42 g and the “Inhibition rate (%)” value [7, 21] was 37.4%. The “Tumor weight (g, mean ± S.D.)” value [7, 21] was 1.26 ± 0.49 g, the “effect on body weight of the mouse” value ([7]; 50-100 mg/kg i.v. three times) was “didn't affect the body weight of the mouse” and the “tumor proliferation compared to the control group” value ([7]; three administrations) was “significant tumor proliferation inhibitory effect”. For the same compound, the “tumor proliferation compared with the control group” value [8] was “strong tumor proliferation inhibitory effect”, the “Inhibition rate (%)” value ([8]; 25 mg/kg i.v. days 1, 5, 9) was 38.2% and the “Tumor weight (g, mean ± S.D.)” value ([8]; 25 mg/kg i.v. days 1, 5, 9) was 0.36 ± 0.41 g. For the same compound, the “Inhibition rate (%)” value ([8]; 50 mg/kg i.v. days 1, 5, 9) was 24.9%, the “Tumor weight (g, mean ± S.D.)” value ([8]; 50 mg/kg i.v. days 1, 5, 9) was 0.44 ± 0.36 g and the “Inhibition rate (%)” value ([8]; 100 mg/kg i.v. days 1, 5, 9) was 44.0%. The “Tumor weight (g, mean ± S.D.)” value ([8]; 100 mg/kg i.v. days 1, 5, 9) was 0.33 ± 0.32 g, the “effect on body weight of the mouse” value ([8]; 25-100 mg/kg i.v. days 1, 5, 9) was “didn't affect the body weight of the mouse” and the number of lymphocytes [9] was “on a decline immediately after injection albeit only slightly”.
